Assay results as given in patent US20230226079A1, “METHODS AND COMPOSITIONS FOR TREATMENT OF SOLID TUMORS” (Saint Louis University, priority 2022, published 2023).

How the values were obtained:
[1] = tested on: 4T1 (mouse) cells implanted into the mammary fat pad; assay: Orthotopic syngeneic breast cancer mouse model (4T1); assay type: in vivo, Balb/c mice; conditions: M-I 30 mg/mouse/day ip; pilot study
Protocol: FIG. 12 illustrates 4T1 cells tumor bearing mice were randomly divided into two groups mice (n=4). Starting day of treatment by M-I (red color) or vehicle (control-blue color) graph was marked by up arrow.
The Inventors further evaluated the efficacy of M-I in orthotopic breast cancer mouse models in a pilot study. Syngeneic breast cancer model using 4T1 (mouse) cells implanted into the mammary fat pad of Balb/c mice. Mice were divided into two groups. One group received M-I (30 mg/mouse/day) and the other group received vehicle as a control by ip.

JHU029 cells = assay: Cytotoxicity assay (Cell Counting Kit-8) in JHU029 cells; assay type: cell-based; conditions: 48 h, treated for 48 h; read-out: IC50 dose, JHU029 cells
Text: (§1) Normal oral keratinocytes (NOK) (kindly gifted by Dr. Karl Mugner, Tuffs University, Boston, MA, USA) were maintained in Keratinocyte SFM medium supplemented with EGF and bovine pituitary extract (GIBCO, Life Technologies, Berkeley, MO, USA) and 1% penicillin/ streptomycin. HNC cell line Ca127 was purchased from the ATCC. JHU029 (JHU-29) and JHU022 (JHU-22) cell lines were procured from the Johns Hopkins University (Baltimore, MD, USA). The Ca127 and JHU022 cells were maintained in Dulbecco's Modified Eagle Medium (DMEM), and JHU029 cells were in RPMI1640 (Sigma, St. Louis, Mo., USA) media supplemented with 10% FBS and 1% penicillin/ streptomycin (Sigma-Aldrich, St. Louis, Mo., USA) in a humidified CO2 incubator. The cell lines are routinely tested in the Inventors' laboratory to rule out mycoplasma contamination using a commercial Mycoplasma Detection kit (MycoAlert™, Lonza, Morrisville, N.C., USA). Ca127 cells are tongue origin and JHU022 and JHU029 cells are from larynx origin.
(§2) Bitter melon extract (BME) was prepared from the Chinese variety of young bitter melons (raw and green) as described previously (Rajamoorthi et al. (2013) PLoS ONE; 8, e78006). Briefly, BME was prepared by aqueous extraction from whole fruit without seeds using a household juicer at room temperature with subsequent centrifugation at 15000 g at 4 C for 30 min. BME was stored at −80 C for further analysis. […]

Ca127 xenograft = assay: Tumorigenicity assay, Ca127 xenograft model; assay type: in vivo, nude mice; conditions: M-I 30 mg/kg IP once a day, BME 30% in drinking water
Protocol: (§3) JHU029 or Ca127 cells (1.5 10^6) containing 40% Matrigel were injected subcutaneously into the flank of BALB/c athymic nude mice (7-8 weeks old). When the palpable tumor was developed (>60 mm3), mice were divided into three groups randomly, 5 mice in each group. The control group was without any treatment. The BME group received 30% (v/v) BME through drinking water. M-I group received 30 mg/kg dose of M-I once in day, every day. Body weight was monitored, and tumor size was measured using a slide caliper and volume was calculated using the formula 1/2 L X W2. After animal sacrifice tumors were dissected out and snap frozen in liquid nitrogen for further analysis. All the animal experiments were carried out in accordance NIH guidelines, following a protocol approved (1017) by the Institutional Animal Care and Use Committee (IACUC) of Saint Louis University.

insulin secretion = conditions: in vitro; cited from earlier work
Ca127 cells = assay: Cytotoxicity assay (Cell Counting Kit-8) in Ca127 cells; assay type: cell-based; conditions: 48 h, treated for 48 h; read-out: IC50 dose, Ca127 cells
Text: as §1, §2

c-Met and c-Myc [2] = assay: Western blot of JHU029 tumor lysates; assay type: in vivo, nude mice; conditions: JHU029 xenograft tumors
Protocol: (§4) Lysates from control, BME or M-I treated cells and tumors were prepared using 2 SDS sample buffer and subjected to western blot analysis using specific antibodies to c-Met (1:500, Cell Signaling Technology, CST, Denvers, Mass., USA,), phospho-STAT3 (pSTAT3-Tyr-705) (1:1000, CST), total STAT3 (1:1000, CST), c-Myc (1:1000, CST), surviving (1:500, Santa Cruz Biotechnology, SBT, Dallas, Tex., USA) and cyclin D1 (1: 500, SBT). HRP conjugated anti-mouse or anti-rabbit secondary antibodies were purchased from Bio-Rad (Hercules, Calif., USA). The blot was reprobed with HRP conjugated -actin antibody (1:5000; SBT) to compare protein load in each lane. Densitometry analysis was done using Image J software (NIH, Bethesda, Md., USA).
as §3, with “All the animal experiments were carried out in accordance NIH guidelines, following a protocol approved (1017) by the Institutional Animal Care and Use Committee (IACUC) of Saint Louis University.” left out

[3] = tested on: TNBC cell lines MDA-MB-231, BT459 and MDA-MB-468; assay: TNBC cell cytotoxicity assays; assay type: cell-based
Text: The Inventors tested human MDA-MB-231 and mouse 4T1 cells in dose dependent manner (FIG. 8). […] The Inventors also tested other compounds in TNBC cell cytotoxicity assays, but these required much higher amounts (>[…]) even for ˜40% cell death.

rat cardiac fibroblasts = conditions: cited from earlier work
c-Met and c-Myc [4] = assay: Western blot of Ca127 tumor lysates; assay type: in vivo, nude mice; conditions: Ca127 xenograft tumors
Protocol: as §4
as §3, with “All the animal experiments were carried out in accordance NIH guidelines, following a protocol approved (1017) by the Institutional Animal Care and Use Committee (IACUC) of Saint Louis University.” left out

In the case of `CC(C)=CC(O)CC(C)[C@H]1CC[C@@]2(C)[C@@H]3[C@@H](O)C=C4[C@@H](CC[C@H](O)C4(C)C)[C@]3(C=O)CC[C@]12C` (stereo partly drawn) [M-I, (3S, 7S, 8S, 9R, 10R, 13R, 14S, 17R) 3,7-dihydroxy-17-(4-hydroxy-6-methylhept-5-en-2-yl)-4,4,13,14-tetramethyl-2,3,7,8,10,11, 12,15, 16,17-decahydro-1H-cyclopenta[a]phenanthrene-9-carbaldehyde], the “tumor volumes versus vehicle control” value [1] is reported as “significantly reduced”, the IC50 (JHU029 cells) is reported as < 8 mg/L and the “reduction of tumor growth” value (Ca127 xenograft) is reported as −50%. The body weight (Ca127 xenograft; throughout the experiment) was “increasing body weight”, the insulin secretion (insulin secretion) was “stimulate insulin secretion” and the IC50 (Ca127 cells) was < 8 mg/L. For the same molecule, the “expression of c-Met and c-Myc in tumors versus untreated control” value (c-Met and c-Myc [2]) was “significant reduction”, the “cell growth of TNBC cell lines” value [3] was “inhibits cell growth in a time-dependent manner” and the “high-glucose-induced cell proliferation and collagen synthesis” value (rat cardiac fibroblasts) was “inhibitory effects”. For the same molecule, the “c-Met and c-Myc expression in tumors versus control” value (c-Met and c-Myc [4]) was “significant reduction”.
